Measurements taken from patent US7932290B2, “Method for the treatment of metabolic disorders” (Wellstat Biologics Corporation, priority 2003, dated 2011).

Key:
[1] = target: T1, Human PPARα LBD fusion protein (Homo sapiens, UniProt Q07869); assay: Transcription activation potential, GAL4 luciferase reporter in C3A cells; format: cell-based
T1 construct: a.a; 167-468)
T1 sequence (Q07869 167-468): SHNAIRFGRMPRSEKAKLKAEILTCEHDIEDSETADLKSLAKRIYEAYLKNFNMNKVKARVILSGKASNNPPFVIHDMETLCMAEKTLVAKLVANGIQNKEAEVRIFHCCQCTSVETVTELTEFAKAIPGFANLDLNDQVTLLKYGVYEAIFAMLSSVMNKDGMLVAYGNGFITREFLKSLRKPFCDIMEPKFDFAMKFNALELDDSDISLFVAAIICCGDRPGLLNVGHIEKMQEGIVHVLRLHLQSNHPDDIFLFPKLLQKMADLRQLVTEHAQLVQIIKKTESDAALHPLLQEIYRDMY
Experimental: (§1) Cells were seeded in 24 well plates the day prior to transfection at 5×10^4−2×10^5 cells/well, depending upon cell type. Cells were transfected using Lipofectamine 2000 reagent from Invitrogen. A total of 0.8 μg DNA/well was added to 50 μL of Optimem Reduced Serum media (serum free; Gibco). Lipofectamine 2000 was added (2.5 μL/well) to another tube containing 50 μL of Optimem media. Plasmid DNA was added at a ratio of 4:3 (reporter:activator); where appropriate, salmon sperm DNA was substituted for activator expressing plasmid. The reporter plasmid used was pFR-Luc, which has the firefly luciferase gene under the control of a GAL4 UAS ([…]) containing promoter. The activator expressing plasmids contain yeast GAL4 DNA binding domain (dbd) fusion of either human PPARα ligand binding domain (LBD; a.a. 167-468) or human PPARγ LBD (a.a. 176-479). DNA constructs containing the mouse PPARα or PPARγ LBD fused to the GAL4 DNA binding domain were also used. The two solutions were incubated at room temperature for 5 min, and then combined. The combined solution was incubated at room temperature for approximately 30 min. Cells were washed once with PBS, and 100 μL of transfection mix added to each well. Plates were incubated at 37° C. in a 5% CO2 incubator for 4.5 hr, followed by aspiration of the transfection mix, with plates refed using EMEM complete media (supplemented with 10% FBS, 1× Glutamine). 24 hr post-transfection, plates were treated with the appropriate compounds in EMEM complete media, followed by washing once with PBS and addition of 100 μL 1× reporter lysis buffer/well (Promega) 24 hr after treatment. Plates went through one freeze/thaw cycle prior to analysis. Approximately 10 μL of lysate was added to 100 μL of firefly luciferase substrate, mixed by pipetting, and analyzed on a luminometer for 10 s using the integration function (relative luciferase units/RLU) or on a Microbeta Trilux (luciferase counts per second/LCPS). Each treatment was performed in triplicate, and in multiple, separate experiments.

[2] = target: T2, Mouse PPARα LBD fusion protein (Mus musculus, UniProt P23204); assay: as above; format: cell-based
T2 sequence (P23204 239-466): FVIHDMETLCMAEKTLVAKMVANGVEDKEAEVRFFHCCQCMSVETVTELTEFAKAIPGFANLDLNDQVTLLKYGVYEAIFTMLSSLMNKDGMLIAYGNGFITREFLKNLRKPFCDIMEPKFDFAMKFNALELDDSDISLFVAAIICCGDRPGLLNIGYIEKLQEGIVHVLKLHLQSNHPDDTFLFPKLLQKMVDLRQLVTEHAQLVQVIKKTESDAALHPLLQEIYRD
Experimental: as §1

[3] = system: male ob/ob mouse model of Type II diabetes; assay: Antidiabetic effects in ob/ob mice (serum chemistry after 2 weeks daily oral dosing); format: in vivo; parameters: key to Glucose ± SEM: serum glucose in mg/dl; Triglycerides ± SEM / Free Fatty Acids ± SEM: unit not given here; conditions: for Glucose / Glucose (% of Control): 2 weeks; for reduction in blood glucose (in words) / reduction in free fatty acids (in words) / reduction in triglycerides (in words): 2 weeks daily oral dosing; for Glucose ± SEM: Table 15
Experimental: Obese (ob/ob) mice have a defect in the protein leptin, a regulator of appetite and fuel metabolism, leading to hyperphagia, obesity and diabetes.
Male obese (ob/ob homozygote) C57BL/6J mice, approximately 8 weeks of age, were obtained from Jackson Labs (Bar Harbor, Me.) and randomly assigned into groups of 5 animals each such that the body weights (45-50 g) and serum glucose levels (≧300 mg/dl in fed state) were similar between groups. A minimum of 7 days was allowed for adaptation after arrival. All animals were maintained under controlled temperature (23° C.), relative humidity (50±5%) and light (7:00-19:00), and allowed free access to standard chow (Formulab Diet 5020 Quality Lab Products, Elkridge, Md.) and water.
Treatment cohorts were given daily oral doses of vehicle (1% hydroxypropyl-methylcellulose), Compounds BI, CF, CA, CB, CC, or CD for 2 weeks. At the end of the treatment period 100 μl of venous blood was withdrawn in a heparinized capillary tube from the retro-orbital sinus of ob/ob mice for serum chemistry analysis.

Compound	transcription activation potential (luciferase) ± standard deviation ([1]; 1 μM) [LCPS]	transcription activation potential (luciferase) ± standard deviation ([1]; 3 μM) [LCPS]	transcription activation potential (luciferase) ± standard deviation ([1]; 10 μM) [LCPS]	transcription activation potential (luciferase) ± standard deviation ([1]; 30 μM) [LCPS]	transcription activation potential (luciferase) ± standard deviation ([1]; 100 μM) [LCPS]	transcription activation potential (luciferase) ± standard deviation ([1]; 200 μM) [LCPS]	transcription activation potential (luciferase) ± standard deviation ([2]; 1 μM, Table 20a) [LCPS]	transcription activation potential (luciferase) ± standard deviation ([2]; 1 μM, Table 21a) [RLU]	transcription activation potential (luciferase) ± standard deviation ([2]; 3 μM, Table 20a) [LCPS]	transcription activation potential (luciferase) ± standard deviation ([2]; 3 μM, Table 21a) [RLU]	transcription activation potential (luciferase) ± standard deviation ([2]; 5 μM, Table 21a) [RLU]	transcription activation potential (luciferase) ± standard deviation ([2]; 7 μM, Table 21a) [RLU]	transcription activation potential (luciferase) ± standard deviation ([2]; 10 μM, Table 20a) [LCPS]	transcription activation potential (luciferase) ± standard deviation ([2]; 10 μM, Table 21a) [RLU]	transcription activation potential (luciferase) ± standard deviation ([2]; 30 μM, Table 20a) [LCPS]	transcription activation potential (luciferase) ± standard deviation ([2]; 30 μM, Table 21a) [RLU]	transcription activation potential (luciferase) ± standard deviation ([2]; 100 μM, Table 20a) [LCPS]	transcription activation potential (luciferase) ± standard deviation ([2]; 100 μM, Table 21a) [RLU]	transcription activation potential (luciferase) ± standard deviation ([2]; 200 μM, Table 20a) [LCPS]	Glucose ([3]; 60 mg/kg daily oral) [mg/dL]	also measured
Cc1cccc(C)c1COc1cccc(CC(=O)O)c1 [Compound CF, 3-(2,6-Dimethylbenzyloxy)phenylacetic acid]	37 ± 11.5	47 ± 22.8	19.9 ± 7.8	40.2 ± 18.9	19 ± 14.2	12.9 ± 8.3	13.17 ± 7.84	2694 ± 159	5.63 ± 0.42	4527 ± 740	7188 ± 1753	14325 ± 1032	153.15 ± 24.4	16680 ± 2432	358.6 ± 5.23	38105 ± 3133	201.5 ± 50.84	41037 ± 5401	106.77 ± 32.53	161.2 ± 14.0	Glucose (% of Control) ([3]; 60 mg/kg daily oral): 38.0 ± 3.0 % of Control; reduction in blood glucose (in words) ([3]; 60 mg/kg): significant reduction; reduction in free fatty acids (in words) ([3]; 60 mg/kg): significant reduction; reduction in triglycerides (in words) ([3]; 60 mg/kg): significant reduction
Cc1cccc(C)c1COc1cccc(C(=O)O)c1 [Compound CG, 3-(2,6-Dimethylbenzyloxy)benzoic acid]	10.9 ± 11.6	19.1 ± 6.1	17.9 ± 5.2	38.2 ± 21.1	23.9 ± 5.3	159.4 ± 29.6	4.43 ± 2.25	361 ± 398	9.17 ± 3.72	706 ± 399	492 ± 160	652 ± 190	7.87 ± 0.7	394 ± 84	11.63 ± 5.01	651 ± 643	11.8 ± 8.95	926 ± 1362	80.3 ± 2		
Cc1cccc(C)c1COc1cccc(C(=O)CCC(=O)O)c1 [Compound BI, 4-(3-(2,6-Dimethylbenzyloxy)phenyl)-4-oxobutyric acid]	127.7 ± 7.1	128 ± 70.7	52.7 ± 8.2	55.4 ± 16.2	20.9 ± 13.1	31.1 ± 29.4	14.67 ± 1.08		15.2 ± 2.78				15.1 ± 3.78		10.43 ± 1.81		15.37 ± 6.21	4421 ± 118	18.6 ± 11.66	248.8 ± 20.0	Free Fatty Acids ± SEM ([3]; 30 mg/kg): 1272.8 ± 32.5; Triglycerides ± SEM ([3]; 30 mg/kg): 66.6 ± 3.6; Glucose ([3]; 30 mg/kg daily oral): 301.4 ± 29.0 mg/dL; Glucose (% of Control) ([3]; 30 mg/kg daily oral): 71.0 ± 7.0 % of Control; Glucose ± SEM ([3]; 30 mg/kg): 301.4 ± 29.0; Glucose (% of Control) ([3]; 60 mg/kg daily oral): 59.0 ± 5.0 % of Control; Free Fatty Acids ± SEM ([3]; 100 mg/kg): 1245.4 ± 20.0; Triglycerides ± SEM ([3]; 100 mg/kg): 55.0 ± 3.4; Glucose ([3]; 100 mg/kg daily oral): 196.3 ± 6.0 mg/dL; Glucose (% of Control) ([3]; 100 mg/kg daily oral): 46.0 ± 1.0 % of Control; reduction in blood glucose (in words) ([3]; 100 mg/kg): significant reduction; reduction in free fatty acids (in words) ([3]; 100 mg/kg): significant reduction; reduction in triglycerides (in words) ([3]; 100 mg/kg): significant reduction; Glucose ± SEM ([3]; 100 mg/kg): 196.3 ± 6.0
